Data from US20080275049A1, “Methods and Compositions for Upregulation of GATA Activity” (REDDY US THERAPEUTICS, INC., priority 2007, published 2008).

What was measured:
GATA = GATA luciferase reporter assay (GATA activity); type: cell-based, human; details: HepG2 cells transfected with GATA luciferase construct, treated overnight; FIG. 3
Protocol: GATA activity: HepG2 cells were grown in T-75 flasks prior to study. 24-well plates were seeded in normal medium without antibiotics to yield ˜50% confluency. The following day, cells were transfected according to the manufacturer's protocol and allowed to incubate overnight. The next day, the media was replaced and cells were treated with vehicle (DMSO) or one of Compounds A-E overnight. Cells were lysed by adding lysis buffer and assayed for luciferase activity.
An in vitro high-throughput assay based on luciferase activity to screen for and identify agents that upregulate GATA activity was developed. HepG2 cells were grown in T-75 flasks prior to study. 24-well plates were seeded in normal medium without antibiotics to yield ˜50% confluency. The following day, cells were transfected (Roche, FuGENE 6 transfection reagent, cat#11815091001) with a GATA luciferase construct (Panomics, cat#LR0027) according to the manufacturer's protocol and allowed to incubate overnight. The next day, the media was replaced and cells were treated with vehicle (DMSO) or GATA inducer candidate compounds (Compounds A-E) overnight. Cells were lysed by adding lysis buffer (Promega, cat#E1500) and assayed for luciferase activity (Perkin Elmer Envision 2101 Multi-Label Reader).

RCT genes = experiment: Real time quantitative PCR screen for RCT gene induction; type: cell-based, human; details: cells treated, total RNA, FIG. 4
Protocol: PT-PCR Screen: Human liver cells (HepG2) were grown in T-75 flasks prior to study. 96-well plates were seeded, and the following day, cells were washed with PBS and treated with serum free media for 24 hours. The next day, cells were treated with vehicle (DMSO) or with one of Compounds A-E overnight. RNA was isolated and RT-PCR was performed to examine changes in RCT gene message levels normalized to actin.
An in vitro high-throughput assay based on real time quantitative PCR was developed to screen for and identify agents that simultaneously upregulate RCT genes. Cells were treated with pharmaceutical agents, some of which are GATA inducers as described above. Total RNA was isolated and used in the real time assay.

GATA1 = experiment: GATA knock-down (siRNA), inducible RCT gene expression; type: cell-based, human; details: normal vs GATA-knockdown (siRNA) HepG2 cells; FIG. 2
Protocol: GATA knock-down: HepG2 cells were grown in T-75 flasks prior to study. Transfection of GATA1 specific siRNA in 24-well plates was performed according to the manufacturer's instructions. After 48 hours, RNA was isolated and RT-PCR was performed to examine changes in GATA1 and RCT message levels all normalized to actin. In some experiments, after 48 hours post transfection, media was removed and normal growth media+one of Compounds A-E or DMSO control was added to the wells. RNA isolation and RT-PCR was then performed as stated above.
To determine the role of GATA on inducible RCT gene expression, molecular approaches were used to reduce GATA expression. GATA expression was reduced by siRNA gene silencing. In this test, a candidate compound (Compound A), known for its ability to function as a GATA inducer, was added to both normal and GATA-knockdown cells as described above.

cholesterol fed rat = experiment: HDL in cholesterol fed rat model; type: in vivo; details: FIG. 5
Protocol: Lipid Measurements: Lipid levels were measured at the end of the studies using commercially available kits.
Atherosclerosis is associated with dyslipidemia (increased LDL and low HDL).

[1] = system: RCT gene (apolipoprotein E, SRB1 and LCAT); experiment: RCT gene expression in pancreatic beta cells; type: cell-based; details: 25 uM, FIG. 7
Protocol: Pancreatic beta cells were incubated with compound A (25 uM). Following treatment total RNA was isolated and RCT gene (apolipoprotein E, SRB1 and LCAT) expression was determined.

Pancreatic beta cells = experiment: Glucose stimulated insulin secretion in pancreatic beta cells; type: cell-based; details: 25 uM, FIG. 8
Protocol: Pancreatic beta cells were incubated with compound A (25 uM). Following treatment glucose stimulated insulin secretion was determined.

Ob/ob mice = experiment: Plasma glucose in ob/ob mice (insulin resistance and diabetes model); type: in vivo; details: 2 and 4 weeks of treatment, FIG. 9
Protocol: Glucose Measurements: Glucose levels were measured at the end of the studies using commercially available kits. Ob/ob mice were treated with control vehicle or vehicle containing Compound A (GATA activator) or vehicle containing pioglitazone (a known antidiabetic drug).

ApoE −/− mice = experiment: Lipid content of aortas in ApoE −/− fat fed mice; type: in vivo; details: oral 50 mg/kg/day for 7 days, oil-red O staining, FIG. 6
Protocol: Lipid Content: 8 week old ApoE −/− mice were fed a high fat diet for 2 months and then placed on normal chow. The mice were then orally dosed for 7 days with either CMC-tween (control) or Compound C at 50 mg/kg/day. At the end of the study, the aorta was dissected out, fixed in the O.C.T., sections were prepared, stained with oil-red O, and mounted under cover slips. The oil-red O staining was analyzed using quantitation software and reported as lipid content per lesion area.
Atherosclerosis is also associated with high levels of lipid content in aortas. Compound C was administered to mice according to the method described above and according to conventional animal testing protocol. The lipid content of the aortas was measured.

With `CCN1CCCC1CNc1nc(Nc2ccc(OC)c(F)c2)nc(N2CCN(CC(=O)N3CCCC3)CC2)n1` (stereo not shown) [D] the “GATA activity (luciferase activity)” value (GATA) was “not shown to induce GATA activity” and the RCT gene expression (RCT genes) was “did not induce RCT gene induction”.
With `CC(=O)c1ccc(Nc2nc(-c3ccccc3)cc(N3CCC(O)CC3)n2)cc1` [Compound A] the “ability to induce RCT gene expression after GATA knock-down” value (GATA1) was “blunting of Compound A's ability to induce RCT gene expression”, the HDL (cholesterol fed rat) was “significantly increased HDL” and the “expression of RCT genes (apolipoprotein E, SRB1 and LCAT)” value [1] was “increased expression of RCT genes”. For the same molecule, the “glucose stimulated insulin secretion” value (Pancreatic beta cells) was “increased secretion of insulin” and the plasma glucose (Ob/ob mice) was “significantly lower levels of plasma glucose”.
With `COc1ccc(Nc2nc(NC3CCCCCC3)nc(N(C)C3CCN(C)CC3)n2)cc1F` [E] the “GATA activity (luciferase activity)” value (GATA) was “not shown to induce GATA activity” and the RCT gene expression (RCT genes) was “did not induce RCT gene induction”.
For `CS(=O)(=O)c1ccc(Nc2nc(-c3ccccc3)cc(N3CCC(O)CC3)n2)cc1` [Compound C], the “lipid content in aortas” value (ApoE −/− mice) was “significantly lowered lipid content”.
